These results are taken from US8952034B2, “Fused heterocyclic compounds as ion channel modulators” (Gilead Sciences, Inc., priority 2009, dated 2015).

This assay concerns the target wild-type human cardiac sodium channel, hNav1.5 (Homo sapiens, UniProt Q14524). The experiment in a line: Late INa screening assay (automated whole cell patch clamp, PatchXpress). It counts as cell-based. The following applies: HEK293 cells expressing hNav1.5, late INa generated with 10 μM Tefluthrin (or 50 nM ATX II); for inhibition at 1 µM: compound at 1 μM, read-out: LateINa_1 uM (percent block of late INa); for inhibition at 10 µM: compound at 10 μM, read-out: LateINa_10 uM (percent block of late INa). The protocol:
The late sodium current (Late INa) and peak sodium current (Peak INa) assays are performed on an automated electrophysiology platform, PatchXpress 7000A (MDS Analytical Technologies, Sunnyvale, Calif.), which uses the whole cell patch clamp technique to measure currents through the cell membrane of up to 16 cells at a time. The assay uses an HEK293 (human embryonic kidney) cell line heterologously expressing the wild-type human cardiac sodium channel, hNav1.5, purchased from Millipore (Billerica, Mass.). No beta subunits were coexpressed with the Na channel alpha subunit. Cells are maintained with standard tissue culture procedures and stable channel expression is maintained with 400 μg/ml Geneticin in the culture medium. […] Experiments are carried out at 24-27° C.
For both the Late INa and Peak INa assays, series resistance compensation is set to 50% and whole-cell compensation is performed automatically. […] Currents through open sodium channels are automatically recorded and stored in the DataXpress2 database (MDS Analytical Technologies, Sunnyvale, Calif.). Analysis is performed using DataXpress2 analysis software and data are compiled in Excel.
Compound stocks are routinely made in glass vials to 10 mM in dimethyl sulfoxide (DMSO). In some cases, when compounds are not soluble in DMSO, they are made in 100% ethanol. Stocks are sonicated as necessary. The extracellular solution for screening Late INa is composed of: 140 mM NaCl, 4 mM KCl, 1.8 mM CaCl2, 0.75 mM MgCl2, and 5 mM HEPES with pH adjusted to 7.4 using NaOH. The extracellular solution for screening Peak INa is composed of: 20 mM NaCl, 120 mM N-methyl-D glucamine, 4 mM KCl, 1.8 mM CaCl2, 0.75 mM MgCl2, and 5 mM HEPES with pH adjusted to 7.4 using HCl. The intracellular solution used to perfuse the inside of the cells for both the Late INa and Peak INa assays contains: 120 mM CsF, 20 mM CsCl, 5 mM EGTA, 5 mM HEPES and pH adjusted to 7.4 with CsOH. […] The 0Na extracellular solution used at the end of each experiment for the Late INa and Peak INa assays to measure baseline current contains: 140 mM N-methyl-D-glucamine; 4 mM KCl; 1.8 mM CaCl2; 0.75 mM MgCl2; 5 mM HEPES and pH was adjusted to 7.4 with HCl.
For the Late INa assay, sodium channels are activated every 10 seconds (0.1 Hz) by depolarizing the cell membrane to −20 mV for 250 milliseconds (ms) from a holding potential of −120 mV. In response to a −20 mV voltage step, typical Nav1.5 sodium currents activate rapidly to a peak negative current and then inactivate nearly completely within […].
All compounds are tested to determine their activity in blocking the late sodium current. Late INa current is generated by adding 10 μM Tefluthrin (pyrethroid) to the extracellular solution while recording Na currents For some experiments, 50 nM ATX II (sea anemone toxin), another late INa activator, was used to generate the late component. […] After establishing the whole cell recording configuration, late INa activators are added to each well 4 times over a 16-17 minute period so that the late component of the Na current reaches a stable value. […] Measurements are made at the end of exposure to the third compound addition and values are normalized to the current level when all Na^+ is removed from the extracellular solution after two additions of 0Na-ECF. Results are reported as percent block of late INa
A general note: In patch-clamp work, channel activity is measured electrically.

Sequence of wild-type human cardiac sodium channel, hNav1.5 (Q14524 whole entry): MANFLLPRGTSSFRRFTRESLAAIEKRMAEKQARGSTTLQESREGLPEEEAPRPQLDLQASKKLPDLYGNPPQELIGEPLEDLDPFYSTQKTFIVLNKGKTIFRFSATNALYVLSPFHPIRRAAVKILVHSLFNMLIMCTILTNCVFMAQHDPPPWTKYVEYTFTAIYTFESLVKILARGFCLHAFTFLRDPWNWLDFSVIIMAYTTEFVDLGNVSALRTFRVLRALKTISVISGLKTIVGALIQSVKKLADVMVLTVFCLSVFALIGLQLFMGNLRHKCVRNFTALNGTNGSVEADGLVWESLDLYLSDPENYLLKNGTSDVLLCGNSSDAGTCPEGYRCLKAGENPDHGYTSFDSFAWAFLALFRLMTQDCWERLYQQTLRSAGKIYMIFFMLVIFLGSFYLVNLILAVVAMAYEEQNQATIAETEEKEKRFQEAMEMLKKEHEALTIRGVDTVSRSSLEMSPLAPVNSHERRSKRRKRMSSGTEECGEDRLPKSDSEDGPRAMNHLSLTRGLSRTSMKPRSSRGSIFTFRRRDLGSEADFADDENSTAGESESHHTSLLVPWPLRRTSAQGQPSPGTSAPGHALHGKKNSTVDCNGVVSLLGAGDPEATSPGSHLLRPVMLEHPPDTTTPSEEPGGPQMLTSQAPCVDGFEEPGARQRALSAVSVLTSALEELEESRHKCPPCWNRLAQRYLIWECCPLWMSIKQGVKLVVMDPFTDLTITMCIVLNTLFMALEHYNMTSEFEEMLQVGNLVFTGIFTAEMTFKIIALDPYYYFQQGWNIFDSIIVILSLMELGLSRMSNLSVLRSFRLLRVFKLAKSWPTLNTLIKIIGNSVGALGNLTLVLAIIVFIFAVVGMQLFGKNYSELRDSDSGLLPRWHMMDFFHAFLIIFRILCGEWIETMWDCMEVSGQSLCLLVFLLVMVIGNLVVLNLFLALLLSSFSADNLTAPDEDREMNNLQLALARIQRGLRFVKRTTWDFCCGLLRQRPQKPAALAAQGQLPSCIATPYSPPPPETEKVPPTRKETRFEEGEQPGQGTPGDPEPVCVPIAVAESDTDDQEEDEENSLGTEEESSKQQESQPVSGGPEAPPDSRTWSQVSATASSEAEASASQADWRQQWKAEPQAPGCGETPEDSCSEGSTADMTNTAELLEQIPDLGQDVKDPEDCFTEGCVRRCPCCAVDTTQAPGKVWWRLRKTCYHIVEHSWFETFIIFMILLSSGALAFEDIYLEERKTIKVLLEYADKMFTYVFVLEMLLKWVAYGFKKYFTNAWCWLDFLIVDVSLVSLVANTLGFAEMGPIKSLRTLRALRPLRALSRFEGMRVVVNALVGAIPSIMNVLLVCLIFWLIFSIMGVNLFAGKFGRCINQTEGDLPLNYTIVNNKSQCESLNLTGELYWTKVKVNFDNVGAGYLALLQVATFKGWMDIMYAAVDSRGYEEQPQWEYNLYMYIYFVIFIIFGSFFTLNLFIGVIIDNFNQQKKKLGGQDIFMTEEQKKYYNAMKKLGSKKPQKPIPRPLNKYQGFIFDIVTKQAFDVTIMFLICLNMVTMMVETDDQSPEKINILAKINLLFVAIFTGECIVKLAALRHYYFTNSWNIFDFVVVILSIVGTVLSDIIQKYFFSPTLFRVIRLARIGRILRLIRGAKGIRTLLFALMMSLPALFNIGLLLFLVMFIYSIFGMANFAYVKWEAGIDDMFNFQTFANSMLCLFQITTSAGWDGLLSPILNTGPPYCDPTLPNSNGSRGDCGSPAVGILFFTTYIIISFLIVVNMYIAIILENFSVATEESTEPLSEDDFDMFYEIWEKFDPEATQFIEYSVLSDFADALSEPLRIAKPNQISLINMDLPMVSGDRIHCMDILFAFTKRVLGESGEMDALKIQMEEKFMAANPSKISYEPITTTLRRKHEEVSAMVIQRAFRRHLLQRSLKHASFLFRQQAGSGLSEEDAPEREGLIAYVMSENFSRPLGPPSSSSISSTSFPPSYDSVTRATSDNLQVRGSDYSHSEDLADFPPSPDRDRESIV

For the compound `FC(F)(F)Oc1ccc(-c2ccc3nnc(C(F)(F)OCc4ccccn4)n3c2)cc1` [BHN-211, 3-[difluoro(pyridin-2-ylmethoxy)methyl]-6-[4-(trifluoromethoxy)phenyl][1,2,4]triazolo[4,3-a]pyridine], the inhibition at 1 µM came to 57.4%. Same read-out and setting: in the case of `FC(F)(F)Oc1ccc(-c2ccc3nnc(C(F)(F)OCc4cn(-c5ccccc5)nc4C(F)(F)F)n3c2)cc1` [BHN-314, 3-(difluoro{[1-phenyl-3-(trifluoromethyl)-1H-pyrazol-4-yl]methoxy}methyl)-6-[4-(trifluoromethoxy)phenyl][1,2,4]triazolo[4,3-a]pyridine] it was 24.2%; in that of `Fc1ccc(COCC(F)(F)c2nnc3ccc(-c4ccc(OC(F)(F)F)cc4)cn23)cc1F` [BHN-190, 3-{2-[(3,4-difluorobenzyl)oxy]-1,1-difluoroethyl}-6-[4-(trifluoromethoxy)phenyl][1,2,4]triazolo[4,3-a]pyridine], 24.3%.

`Fc1cc(-c2ccc3nnc(C(F)(F)F)n3c2)cc(F)c1Oc1ccccc1` [BHN-109, 6-(3,5-difluoro-4-phenoxyphenyl)-3-(trifluoromethyl)[1,2,4]triazolo[4,3-a]pyridine]: the inhibition at 1 µM was determined as 61.8%.

`Cc1cc(COC(F)(F)c2nnc3ccc(-c4ccc(OC(F)(F)F)cc4)cn23)nn1-c1ccc(Cl)cc1` [BHN-302, 3-[{[1-(4-chlorophenyl)-5-methyl-1H-pyrazol-3-yl]methoxy}(difluoro)methyl]-6-[4-(trifluoromethoxy)phenyl][1,2,4]triazolo[4,3-a]pyridine]: the inhibition at 1 µM worked out at 52.8%.

In the case of `FC(F)(F)Oc1ccc(-c2ccc3nnc(COCC4CC4)n3c2)cc1` [BHN-128, 3-[(cyclopropylmethoxy)methyl]-6-[4-(trifluoromethoxy)phenyl][1,2,4]triazolo[4,3-a]pyridine], the inhibition at 1 µM was found to be 65.6%.

As for `O=C(NCC(F)(F)c1nnc2ccc(-c3ccc(OC(F)(F)F)cc3)cn12)Nc1ccccc1` [BHN-263, 1-(2,2-difluoro-2-{6-[4-(trifluoromethoxy)phenyl][1,2,4]triazolo[4,3-a]pyridin-3-yl}ethyl)-3-phenylurea], the inhibition at 1 µM was 22.6%. For `CSc1ccc(-c2ccc3cnc(C(F)(F)F)n3c2)cn1` [BHN-101, 6-[6-(methylsulfanyl)pyridin-3-yl]-3-(trifluoromethyl)imidazo[1,5-a]pyridine], the inhibition at 1 µM was 32.3%. `FC(F)(F)Oc1ccc(-c2ccc3nnc(C(F)(F)OCc4noc(-c5ccccc5)n4)n3c2)cc1` [BHN-323, 3-{difluoro[(5-phenyl-1,2,4-oxadiazol-3-yl)methoxy]methyl}-6-[4-(trifluoromethoxy)phenyl][1,2,4]triazolo[4,3-a]pyridine]: the inhibition at 1 µM was found to be 73%.

`FC(F)(F)Oc1ccc(-c2ccc3nnc(C(F)(F)F)n3c2)c2cccnc12` [BHN-108, 8-(trifluoromethoxy)-5-[3-(trifluoromethyl)[1,2,4]triazolo[4,3-a]pyridin-6-yl]quinoline]: the inhibition at 1 µM came to 45.7% and the inhibition at 10 µM was 63.1%. For the compound `FC(F)(F)c1nnc2ccc(-c3ccc(Oc4ccc(Cl)cc4)cc3)nn12` [BHN-236, 6-[4-(4-chlorophenoxy)phenyl]-3-(trifluoromethyl)[1,2,4]triazolo[4,3-b]pyridazine], the inhibition at 1 µM stood at 40%.

`COC(C)(C)c1ccc(-c2ccc3nnc(C(F)(F)F)n3c2)cc1` [BHN-220, 6-[4-(2-methoxypropan-2-yl)phenyl]-3-(trifluoromethyl)[1,2,4]triazolo[4,3-a]pyridine]: the inhibition at 1 µM turned out to be 58.5%. Turning to `CCC(=O)Nc1cc(-c2ccc(OC(F)(F)F)cc2)cn2c(C)nnc12` [BHN-85, N-{3-methyl-6-[4-(trifluoromethoxy)phenyl][1,2,4]triazolo[4,3-a]pyridin-8-yl}propanamide], the inhibition at 10 µM is 20.5%.

As for `FC(F)(F)c1ncc(-c2ccc3nnc(C(F)(F)F)n3c2)cn1` [BHN-122, 3-(trifluoromethyl)-6-[2-(trifluoromethyl)pyrimidin-5-yl][1,2,4]triazolo[4,3-a]pyridine], the inhibition at 1 µM is 31.8%.

In the case of `FC(F)(F)Oc1ccc(-c2ccc3nnc(C(F)(F)OCc4cccc(-c5cccnc5)c4)n3c2)cc1` [BHN-306, 3-(difluoro{[3-(pyridin-3-yl)benzyl]oxy}methyl)-6-[4-(trifluoromethoxy)phenyl][1,2,4]triazolo[4,3-a]pyridine], the inhibition at 1 µM was 49.7%. `COCC(F)(F)c1nnc2ccc(-c3ccc(Oc4ccc(F)cc4)cc3)cn12` [BHN-138, 3-(1,1-difluoro-2-methoxyethyl)-6-[4-(4-fluorophenoxy)phenyl][1,2,4]triazolo[4,3-a]pyridine]: the inhibition at 1 µM worked out at 42.8%. On the same count and under the same terms, the result for `FC(F)(F)Oc1ccc(-c2ccc3nnc(C(F)(F)OCc4coc(-c5ccccc5)n4)n3c2)cc1` [BHN-299, 3-{difluoro[(2-phenyl-1,3-oxazol-4-yl)methoxy]methyl}-6-[4-(trifluoromethoxy)phenyl][1,2,4]triazolo[4,3-a]pyridine] reads 51.1%; that for `OCCOC(F)(F)c1nnc2ccc(-c3ccc(OC(F)(F)F)cc3)cn12` [BHN-157, 2-(difluoro{6-[4-(trifluoromethoxy)phenyl][1,2,4]triazolo[4,3-a]pyridin-3-yl}methoxy)ethanol], 18.3%. On to `CC(C)c1nnc2ccc(-c3ccc(OCC(F)(F)F)nc3)nn12` [BHN-203, 3-(propan-2-yl)-6-[6-(2,2,2-trifluoroethoxy)pyridin-3-yl][1,2,4]triazolo[4,3-b]pyridazine], for which the inhibition at 1 µM stood at 19.3%. With `FC(F)(F)Oc1ccc(-c2ccc3nnc(C(F)(F)OCc4cn(-c5ccccc5)nn4)n3c2)cc1` [BHN-215, 3-{difluoro[(1-phenyl-1H-1,2,3-triazol-4-yl)methoxy]methyl}-6-[4-(trifluoromethoxy)phenyl][1,2,4]triazolo[4,3-a]pyridine], the inhibition at 1 µM was 36.4%. On the same count and under the same terms, the result for `Cc1c(-c2ccc(OC(F)(F)F)cc2)ccc2nnc(C(F)(F)F)n12` [BHN-202, 5-methyl-6-[4-(trifluoromethoxy)phenyl]-3-(trifluoromethyl)[1,2,4]triazolo[4,3-a]pyridine] reads 74.2%; that for `FC(F)(F)Oc1ccc(-c2ccc3nnc(C(F)(F)OCc4ccc5nccnc5c4)n3c2)cc1` [BHN-291, 6-[(difluoro{6-[4-(trifluoromethoxy)phenyl][1,2,4]triazolo[4,3-a]pyridin-3-yl}methoxy)methyl]quinoxaline], 47%.

For the compound `FC(F)(F)c1nnc2ccc(-c3nnc(C4CC4)s3)cn12` [BHN-96, 6-(5-cyclopropyl-1,3,4-thiadiazol-2-yl)-3-(trifluoromethyl)[1,2,4]triazolo[4,3-a]pyridine], the inhibition at 1 µM turned out to be 20.3%. Turning to `FC(F)c1nnc2cnc(-c3ccc(Oc4ccccc4)cc3)cn12` [BHN-18, 3-(difluoromethyl)-6-(4-phenoxyphenyl)[1,2,4]triazolo[4,3-a]pyrazine], the inhibition at 10 µM was found to be 54.6%. With `COCCOC(F)(F)c1nnc2ccc(-c3ccc(OC(F)(F)F)cc3)cn12` [BHN-141, 3-[difluoro(2-methoxyethoxy)methyl]-6-[4-(trifluoromethoxy)phenyl][1,2,4]triazolo[4,3-a]pyridine], the inhibition at 1 µM was determined as 32.5%. The same measure, in the same setting: the result for `FC(F)(F)c1nnc2ccc(-c3ccc4ccccc4c3)cn12` [BHN-106, 6-(naphthalen-2-yl)-3-(trifluoromethyl)[1,2,4]triazolo[4,3-a]pyridine] reads 38.2%.
